Like-named read-outs stand apart in the source and are kept apart here.
Columns and labels:
PI 3-kinase = details: stated to be the same as for DNA-PK; cited from earlier work
cells = details: literature; cited from earlier work
[1] = target: T1, Mammalian DNA-PK, isolated from Hela cell nuclear extract (Homo sapiens, UniProt P78527); assay: DNA-PK inhibition assay (33P-ATP, filter binding); format: biochemical
T1 construct: Mammalian DNA-PK, isolated from Hela cell nuclear extract; endogenous in cells; host or cells: HeLa cell nuclear extract (purified per Gell and Jackson 1999)
How it was run: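 DNA-PK from HeLa nuclear extract preincubated with compound 10 min at 30 °C, then started with 50 μM Na-ATP final, ^33P-γATP and 30mer dsDNA (10 ng/μl), run 45 min at 30 °C.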

HeLa cells = assay: Enhancement Ratio: cell growth inhibition (SRB assay) after 2 Gy irradiation; format: cell-based; details: inhibitor 25 μM
Method: DNA-PK inhibitors were used at a fixed concentration of 25 micromolar. Radiation was delivered by a Faxitron 43855D X-ray system at a dose rate of 1Gy per minute The Enhancement ratio at 2 Gy irradiation was calculated from the formula: [formula] Cell growth was assessed using the sulforhodamine B (SRB) assay (Skehan, P., Storung, R., Scudiero, R., Monks, […]., Kenny, S. and Boyd, M. R. (1990) New calorimetric cytotoxicity assay for anticancer-drug screening. J. Natl. Cancer Inst. 82:1107-1112). 400 HeLa cells were seeded into each well of a flat-bottomed 48-well microtiter plate in a volume of 200 μl and incubated for 6 h at 37° C. […] Cells were allowed to grow for a further 1 h before irradiation or mock irradiation. Cells untreated with DNA-PK inhibitor or unirradiated were used as a control. Cells treated with DNA-PK inhibitor alone were used to assess the growth inhibition by the DNA-PK inhibitor. Cells were left for a further 16 h before replacing the media and allowing the cells to grow for a further 6 days at 37° C. The media was then removed and the cells fixed with 200 μl of ice cold 10% (w/v) trichloroacetic acid. The plates were incubated at 4° C. for 20 minutes and then washed four times with water. Each well of cells was then stained with 200 μl of 0.4% (w/v) SRB in 1% acetic acid for 20 minutes before washing four times with 1% acetic acid. Plates were then dried for 2 h at room temperature. The dye from the stained cells was solubilized by the addition of 100 μl of 10 mM Tris Base into each well. Plates were gently shaken and left at room temperature for 30 minutes before measuring the optical density at 564 nm on a Microquant microtiter plate reader.

PI 3-kinase (p110α/p85α) [2] = target: T2, PI 3-kinase (p110α/p85α) (UniProt P32871); assay: PI 3-kinase inhibition assay; format: biochemical; details: GST-fused p110α/p85α
T2 construct: other: GST-fused p110α/p85α
Source text: (§1) In order to assess the inhibitory action of the compounds against PI 3-kinase in vitro, the following assay was used to determine IC50 values.
(§2) Baculoviral recombinant GST-fused PI 3-kinase (p110α/p85α) was purified from Sf9 insect cells using GSH-sepharose affinity chromatography as described (Wymann, M. T et al., (1996) Wortmannin inactivates phosphoinositide 3-kinase by covalent modification of Lys-802, a residue involved in the phosphate transfer reaction. Mol. Cell Biol. 16:1722-1733). PI 3-kinase (1 μl) was diluted in reaction buffer (89 μl of 50 mM Hepes pH 7.5, 150 mM NaCl, 0.1 mM Sodium Orthovanadate, containing 20 μg of phosphatidylinositol) and varying concentrations of inhibitor compound added. […] Reactions were incubated for a further 20 minutes at 37° C., before quenching with the addition of 400 μl of chloroform/methanol (1:1). Reactions were acidified by the addition of 200 μl of 1M HCl, before separation of the organic and aqueous phases by centrifugation at 10,000 g for 30 seconds. The organic phase was transferred to a fresh tube and washed twice with 150 μl of 1M hydrochloric acid/methanol (1:1), discarding the aqueous phase. The washed reaction product was then placed in a white 96-well plate with 100 μl of scintillation fluid and transferred to a TopCount NXT for scintillation counting. Counts per minute, following a one minute counting time, were recorded for each reaction. The inhibition of PI 3-kinase activity by compounds was calculated as described above for the DNA-PK assay.
(§3) The selectivity was determined by the following equation: […]

PI 3-kinase (p110α/p85α) [3] = assay: PI 3-kinase inhibition assay; format: biochemical; details: selectivity ratio from the IC50s for PI 3-kinase and DNA-PK
Source text: as §1, §2, §3

ATM protein [4] = target: T3, ATM protein (Homo sapiens, UniProt Q13315); assay: ATM inhibition assay (immunoprecipitated ATM, GSTp53N66 substrate); format: biochemical
T3 construct: ATM protein was immunoprecipitated from HeLa cell nuclear extract; endogenous in cells; host or cells: HeLa cell nuclear extract (immunoprecipitate)
Method: (§4) In order to assess the inhibitory action of the compounds against ATM in vitro, the following assay was used to determine IC50 values.
(§5) ATM protein was immunoprecipitated from HeLa cell nuclear extract using rabbit polyclonal antisera raised to the C-terminal ˜500 amino-acid residues of the human ATM protein. The immunoprecipitation was performed according to the methodology described by Banin, S. et al. (1998) Enhanced phosphorylation of p53 by ATM in response to DNA damage. Science 281:1674-1677. 10 μl of immunoprecipitated ATM in Buffer C (50 mM Hepes, pH 7.4, 6 mM MgCl2, 150 mM NaCl, 0.1 mM sodium orthovanadate, 4 mM MnCl2, 0.1 mM dithiothreitol, 10% glycerol) was added to 32.5 μl of buffer C containing 1 μg of the ATM substrate GSTp53N66 in a V-bottomed 96 well polypropylene plate. The GSTp53N66 substrate is the amino terminal 66 amino acid residues of human wild type p53 fused to glutathione S-transferase. ATM phosphorylates p53 on the residue serine 15 (Banin, S. et al. (1998) Enhanced phosphorylation of p53 by ATM in response to DNA damage. Science 281:1674-1677). Varying concentrations of inhibitor were then added. […] After 10 minutes of incubation at 37° C., the reactions were initiated by the addition of 5 μl of 50 μM Na-ATP. After 1 h with shaking at 37° C., 150 μl of phosphate buffered saline (PBS) was added to the reaction and the plate centrifuged at 1500 rpm for 10 minutes. 5 μl of the reaction was then transferred to a 96 well opaque white plate containing 45 μl of PBS to allow the GSTp53N66 substrate to bind to the plate wells. The plate was covered and incubated at room temperature for 1 h with shaking before discarding the contents. The plate wells were washed twice by the addition of PBS prior to the addition of 3% (w/v) bovine serum albumin (BSA) in PBS. The plate was incubated at room temperature for 1 h with shaking before discarding the contents and washing twice with PBS. To the wells, 50 μl of a 1:10,000 dilution of primary phosphoserine-15 antibody (Cell Signaling Technology, #9284L) in 3% BSA/PBS was added to detect the phosphorylation event on the serine 15 residue of p53 elicited by the ATM kinase. After 1 h of incubation at room temperature with shaking, the wells were washed four times with PBS prior to the addition of an anti-rabbit HRP conjugated secondary antibody (Pierce, 31462) with shaking for 1 h at room temperature. The wells were then washed four times with PBS before the addition of chemiluminescence reagent (NEN Renaissance, NEL105). The plate was then shaken briefly, covered with a transparent plate seal and transferred to a TopCount NXT for chemiluminescent counting. Counts per second, following a one second counting time, were recorded for each reaction. The inhibition of ATM activity by compounds was calculated as described above for the DNA-PK assay.
as §3

ATM protein [5] = assay: as above; format: biochemical, human; details: selectivity ratio from the IC50s for ATM and DNA-PK
Method: as §4, §5, §3

[6] = IC50 of less than about 1 μM and/or % inhibition of more than about 50 at 1 μM, read-out: DNA-PK inhibition IC50 (particular efficacy)
[7] = concentration at which 50% of the enzyme activity is inhibited, read-out: DNA-PK Inhibition IC50

T3 sequence (Q13315 whole entry): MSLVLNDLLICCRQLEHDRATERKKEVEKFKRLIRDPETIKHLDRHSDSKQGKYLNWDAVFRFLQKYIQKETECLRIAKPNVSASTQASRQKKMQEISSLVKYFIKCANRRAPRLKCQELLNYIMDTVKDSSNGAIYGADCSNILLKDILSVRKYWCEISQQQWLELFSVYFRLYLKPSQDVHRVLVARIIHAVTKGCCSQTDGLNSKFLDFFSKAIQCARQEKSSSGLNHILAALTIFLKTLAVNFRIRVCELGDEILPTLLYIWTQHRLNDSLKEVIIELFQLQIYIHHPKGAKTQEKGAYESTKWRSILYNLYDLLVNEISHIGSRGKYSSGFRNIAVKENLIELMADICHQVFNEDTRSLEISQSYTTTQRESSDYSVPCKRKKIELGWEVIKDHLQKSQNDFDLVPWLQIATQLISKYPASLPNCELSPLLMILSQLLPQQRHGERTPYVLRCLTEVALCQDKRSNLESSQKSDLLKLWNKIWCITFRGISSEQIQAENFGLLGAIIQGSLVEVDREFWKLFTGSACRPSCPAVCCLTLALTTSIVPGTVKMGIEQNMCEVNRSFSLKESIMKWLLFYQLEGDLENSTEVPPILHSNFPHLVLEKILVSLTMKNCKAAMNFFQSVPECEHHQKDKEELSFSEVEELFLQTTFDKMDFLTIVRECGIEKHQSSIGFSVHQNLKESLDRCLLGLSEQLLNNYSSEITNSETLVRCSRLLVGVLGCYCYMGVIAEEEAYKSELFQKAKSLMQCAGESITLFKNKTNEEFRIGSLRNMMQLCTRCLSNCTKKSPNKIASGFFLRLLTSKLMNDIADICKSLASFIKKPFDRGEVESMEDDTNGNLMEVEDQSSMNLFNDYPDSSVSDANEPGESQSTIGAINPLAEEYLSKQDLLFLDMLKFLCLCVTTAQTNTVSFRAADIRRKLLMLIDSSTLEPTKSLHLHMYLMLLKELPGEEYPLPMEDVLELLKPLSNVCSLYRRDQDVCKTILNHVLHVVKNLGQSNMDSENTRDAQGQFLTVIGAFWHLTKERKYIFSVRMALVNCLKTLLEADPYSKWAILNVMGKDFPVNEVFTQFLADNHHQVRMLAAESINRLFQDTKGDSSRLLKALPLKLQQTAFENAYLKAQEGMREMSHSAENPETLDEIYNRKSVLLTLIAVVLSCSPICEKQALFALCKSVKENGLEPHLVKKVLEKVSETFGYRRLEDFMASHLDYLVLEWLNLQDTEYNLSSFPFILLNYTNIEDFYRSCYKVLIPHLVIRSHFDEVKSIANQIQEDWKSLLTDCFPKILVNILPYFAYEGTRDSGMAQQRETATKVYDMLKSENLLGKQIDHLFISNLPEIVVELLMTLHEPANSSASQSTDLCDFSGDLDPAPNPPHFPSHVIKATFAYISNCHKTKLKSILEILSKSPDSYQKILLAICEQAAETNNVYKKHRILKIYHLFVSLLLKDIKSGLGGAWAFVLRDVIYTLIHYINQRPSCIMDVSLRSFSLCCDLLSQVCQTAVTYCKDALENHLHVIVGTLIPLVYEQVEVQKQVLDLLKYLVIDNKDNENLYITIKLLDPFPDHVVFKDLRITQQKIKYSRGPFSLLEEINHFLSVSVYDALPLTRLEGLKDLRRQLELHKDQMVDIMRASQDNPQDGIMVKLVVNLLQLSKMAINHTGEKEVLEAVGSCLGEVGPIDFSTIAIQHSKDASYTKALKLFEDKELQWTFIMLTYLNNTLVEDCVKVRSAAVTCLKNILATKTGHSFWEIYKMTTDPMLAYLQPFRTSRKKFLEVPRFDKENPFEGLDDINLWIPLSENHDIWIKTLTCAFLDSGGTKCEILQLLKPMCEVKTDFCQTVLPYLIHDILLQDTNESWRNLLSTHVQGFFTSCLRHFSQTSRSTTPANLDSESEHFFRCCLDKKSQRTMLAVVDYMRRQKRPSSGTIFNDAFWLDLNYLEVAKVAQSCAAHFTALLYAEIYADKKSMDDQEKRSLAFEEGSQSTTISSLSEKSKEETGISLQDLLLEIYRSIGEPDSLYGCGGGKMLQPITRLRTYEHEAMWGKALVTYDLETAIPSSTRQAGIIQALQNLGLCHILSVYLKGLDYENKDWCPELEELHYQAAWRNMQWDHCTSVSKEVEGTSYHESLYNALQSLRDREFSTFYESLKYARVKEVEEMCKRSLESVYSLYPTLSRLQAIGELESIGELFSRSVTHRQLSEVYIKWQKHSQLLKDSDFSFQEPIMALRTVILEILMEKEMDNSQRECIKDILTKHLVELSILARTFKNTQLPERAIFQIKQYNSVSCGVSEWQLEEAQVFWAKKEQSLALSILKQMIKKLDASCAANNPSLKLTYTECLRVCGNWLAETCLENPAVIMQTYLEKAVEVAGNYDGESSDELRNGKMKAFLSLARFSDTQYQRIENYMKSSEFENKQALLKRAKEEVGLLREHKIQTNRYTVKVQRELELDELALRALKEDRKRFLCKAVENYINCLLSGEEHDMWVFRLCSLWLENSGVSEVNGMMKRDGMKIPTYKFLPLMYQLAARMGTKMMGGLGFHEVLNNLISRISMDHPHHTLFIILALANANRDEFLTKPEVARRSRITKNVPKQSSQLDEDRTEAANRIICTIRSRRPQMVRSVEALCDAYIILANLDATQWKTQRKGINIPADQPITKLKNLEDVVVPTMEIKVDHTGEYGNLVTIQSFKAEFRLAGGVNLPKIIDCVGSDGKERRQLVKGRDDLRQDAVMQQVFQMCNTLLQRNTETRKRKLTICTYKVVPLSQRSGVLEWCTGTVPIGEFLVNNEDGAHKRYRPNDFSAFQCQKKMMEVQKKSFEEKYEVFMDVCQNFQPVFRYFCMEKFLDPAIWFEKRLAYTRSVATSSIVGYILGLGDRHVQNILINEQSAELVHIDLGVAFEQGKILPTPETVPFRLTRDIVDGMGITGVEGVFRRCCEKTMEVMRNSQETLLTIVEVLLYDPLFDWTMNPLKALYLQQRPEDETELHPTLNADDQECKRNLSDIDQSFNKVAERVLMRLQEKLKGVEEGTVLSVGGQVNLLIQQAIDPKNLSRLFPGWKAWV

For `O=c1cc(N2CCOCC2)oc2c(-c3ccccc3)cccc12` [LY294002], the IC50 (PI 3-kinase) is listed as roughly 1000 nM and the “sensitisation of cells to the effects of IR” value (cells) is listed as “weakly sensitise”.
For `O=c1cc(N2CCOCC2)oc2c1ccc1ccccc12` [Compound 293, 2-(morpholin-4-yl)-benzo[h]chromen-4-one], the IC50 [1, 6] was less than 1000 nM, the IC50 [1, 7] was 400 nM and the “Enhancement Ratio (ER)” value (HeLa cells) was 1.7. The IC50 (PI 3-kinase (p110α/p85α) [2]) was 20000 nM, the “Δ(DNA-PK/PI 3-K)” value (PI 3-kinase (p110α/p85α) [3]) was 50 and the IC50 (ATM protein [4]) was greater than 100000 nM. The “Δ(DNA-PK/ATM)” value (ATM protein [5]) was greater than 250.
For `O=c1cc(N2CCOCC2)oc2cc(OCc3ccc(Cl)cc3)ccc12` [Compound 415, 7-(4-chlorobenzyloxy)-2-(morpholin-4-yl)-chromen-4-one], the IC50 [1, 6] was less than 1000 nM, the IC50 [1, 7] was 500 nM and the “Enhancement Ratio (ER)” value (HeLa cells) was 1.86. The IC50 (PI 3-kinase (p110α/p85α) [2]) was greater than 100000 nM, the “Δ(DNA-PK/PI 3-K)” value (PI 3-kinase (p110α/p85α) [3]) was greater than 200 and the IC50 (ATM protein [4]) was greater than 100000 nM. The “Δ(DNA-PK/ATM)” value (ATM protein [5]) was greater than 200.
In the case of `O=c1cc(N2CCOCC2)oc2cc(OCc3ccc(F)cc3)ccc12` [Compound 414, 7-(4-Fluoro-benzyloxy)-2-morpholin-4-yl-chromen-4-one], the IC50 [1, 7] is reported as 1500 nM, the “Enhancement Ratio (ER)” value (HeLa cells) is reported as 1.69 and the IC50 (PI 3-kinase (p110α/p85α) [2]) is reported as 95000 nM. For the same compound, the IC50 (ATM protein [4]) was greater than 100000 nM.
With `O=c1cc(N2CCOCC2)nc2c3ccccc3ccn12` [Compound 5, 2-morpholin-1-yl-pyrimido-[2,1-a]isoquinolin-4-one] the IC50 [1, 6] was less than 1000 nM, the IC50 [1, 7] was 350 nM and the “Enhancement Ratio (ER)” value (HeLa cells) was 1.63. The “Δ(DNA-PK/PI 3-K)” value (PI 3-kinase (p110α/p85α) [3]) was greater than 143, the IC50 (ATM protein [4]) was greater than 100000 nM and the “Δ(DNA-PK/ATM)” value (ATM protein [5]) was greater than 286.
With `O=c1cc(N2CCOCC2)oc2cc(OCc3ccc(Br)cc3)ccc12` [Compound 416, 7-(4-Bromobenzyloxy)-2-morpholin-4-yl-chromen-4-one] the IC50 [1, 6] was less than 1000 nM, the IC50 [1, 7] was 600 nM and the “Enhancement Ratio (ER)” value (HeLa cells) was 1.32. For the same compound, the IC50 (ATM protein [4]) was greater than 100000 nM, the “Δ(DNA-PK/ATM)” value (ATM protein [5]) was greater than 167 and the melting point was 221 to 222 °C.
In the case of `O=c1cc(N2CCOCC2)oc2cc(OCc3ccccc3)ccc12` [Compound 337, 7-Benzyloxy-2-morpholin-4-yl-chromen-4-one], the IC50 [1, 6] is reported as less than 1000 nM, the IC50 [1, 7] is reported as 650 nM and the “Enhancement Ratio (ER)” value (HeLa cells) is reported as 1.12. The IC50 (ATM protein [4]) was greater than 100000 nM and the “Δ(DNA-PK/ATM)” value (ATM protein [5]) was greater than 154.

— patent publication US7674823B2, “DNA-PK inhibitors” (Cancer Research Technology Limited, priority 2001, dated 2010)
